Here are results for four compounds from patent US12440610B2, “Coated medical devices and methods of inhibiting implant-associated infections” (UNIVERSITY OF CINCINNATI, priority 2017, dated 2025).

In series [1] the test system is methicillin resistant S. aureus (MRSA). The series can be described thus: Subcutaneous implant and infection of mice, MRSA colonization of implant. As to conditions: CF-1 mice, 2.5 million cfu, 3 days post infection; for reduction of MRSA colonization of PTFE in vivo: subcutaneous coated PTFE; for reduction of MRSA colonization of silk suture in vivo: subcutaneous coated silk suture; for reduction of MRSA colonization of titanium screws in vivo: subcutaneous coated titanium screws.
Excerpt: (§1) Intact 5 cm sections of PTFE graft, full 75 cm length of silk suture, and individual titanium screws were dip-coated into each antibiotic solution and immediately withdrawn at a rate of ˜200 mm/'s. Thin films of antibiotic were subsequently formed as the ethanol evaporated.
(§2) After the PTFE, silk suture, and titanium are withdrawn from the antibiotic stock solution, they were allowed to further dry overnight at ambient conditions at room temperature. Vehicle (100% ethanol)-coated pieces were prepared in an identical manner, substituting absolute ethanol for the antibiotic stock solutions. PTFE implants were then cut to 5 mm×5 mm pieces, and silk suture was cut to 2 cm length for use in vitro and in vivo. Titanium screws were not further manipulated prior to use in vitro and in vivo.
(§3) MRSA was obtained from the clinical microbiology lab of Shriner's Hospital for Children (Cincinnati, OH). […] P. aeruginosa was grown from frozen glycerol stock overnight on TSB agar plates. MRSA was grown overnight from frozen glycerol stock on TSB agar plates with 5% sheep's blood. […] Bacteria were then washed twice by centrifugation at 3000×g for 10 min and resuspension in 0.9% NaCl. The optical density of the suspended bacteria was determined at 550 nm light and final inoculating concentration calculated from standard curves specific to each strain. Bacteria remained in 0.9% NaCl for in viva testing but were placed back into TSB for in vitro testing.
(§4) CF-1 mice were anesthetized with 120 mg/kg ketamine/16 mg/kg xylazine injected intraperitoneally and their backs shaved with electric clippers. A 2 cm incision was made in the back and implants (5 mm×5 mm PTFE, 2 cm silk suture, or titanium screws) were placed subcutaneously (n=9 per group).
(§5) Mice were sacrificed 3 days post infection. The implant capsule was entered with sterile instruments and the implant was removed and placed in 10 mL of sterile PBS. […] The implants and tissue were placed in a bath sonicator for 10 min to release adherent bacteria. Bacteria were then quantified by the plate dilution method. The most concentrated solution plated for each sample was a 1:100 dilution.

The test system of series [2] is P. aeruginosa (strain 762). The experiment in a line: Subcutaneous implant and infection of mice, P. aeruginosa colonization of implant. To be noted: CF-1 mice, 2 million cfu, 3 days post infection; for reduction of P. aeruginosa colonization of PTFE in vivo: subcutaneous coated PTFE; for reduction of P. aeruginosa colonization of silk suture in vivo: subcutaneous coated silk suture; for reduction of P. aeruginosa colonization of titanium screws in vivo: subcutaneous coated titanium screws.
Excerpt: as §1, §2, §3, §4, §5

Series [3] concerns P. aeruginosa (strain 762). The series can be described thus: In vitro bacterial adherence and colonization of coated implants, P. aeruginosa. The series is classed as cell-based. As to conditions: for reduction of P. aeruginosa adherent to PTFE in vitro / reduction of P. aeruginosa adherent to silk suture in vitro / reduction of P. aeruginosa adherent to titanium screws in vitro: 24 hours incubation, vs vehicle-coated controls; for reduction of P. aeruginosa adherent to silk suture in vitro: coated silk suture. The method, then: Bacteria was prepared as in 2.3 and 1000 colony forming units (cfus) in 300 μL was placed in the wells of 96-well plates. […] Pieces were then placed in 10 mL sterile PBS and bath sonicated for 10 minutes to release adherent bacteria. Bacteria were quantified by the plate dilution method.

Series [4] is described as follows: physchem. To be noted: 65 °C, organic solvent or mixture, thermodynamic from solid. Here is the method:
The process involved heating the ethanol to 65° C. and slowly adding the solid solute under bath sonication and manual agitation until the resulting solution was transparent. Dip coating was then carried out at room temperature immediately after removing the stock solutions from the heated water bath.
The reported solubility in the literature of the above antibiotics in ethanol are incompletely studied.

For series [5] the following is noted: cited from earlier work; for reported solubility in ethanol/alcohol (in words): literature.
The subject of series [6] is methicillin resistant S. aureus (MRSA). The series can be described thus: In vitro bacterial adherence and colonization of coated implants, MRSA. The series is classed as cell-based. As to conditions: 24 hours incubation; for reduction of MRSA adherent to PTFE in vitro: coated PTFE; for reduction of MRSA adherent to PTFE in vitro / reduction of MRSA adherent to titanium screws in vitro: vs vehicle-coated controls; for reduction of MRSA adherent to silk suture in vitro: coated silk suture, vs vehicle (100% ethanol)-coated controls; for reduction of MRSA adherent to titanium screws in vitro: coated titanium screws. Here is the method: Small pieces of PTFE (5 mm×5 mm), silk suture (2 cm), and titanium screws antibiotic-coated and vehicle (100% ethanol)-coated, were prepared for analysis as in Example 1.2. Bacteria was prepared as in 2.3 and 1000 colony forming units (cfus) in 300 μL was placed in the wells of 96-well plates. The antibiotic-coated and vehicle-coated pieces were then immersed and incubated for 24 hours at 37° C., 95% humidity (n=15 per group). Pieces were then placed in 10 mL sterile PBS and bath sonicated for 10 minutes to release adherent bacteria. Bacteria were quantified by the plate dilution method.

Values joined by “and” are separate entries in the source; they are usually repeats but may differ in a detail not shown here. Equal values may be shown once.

Usually solubility stands for how much of the substance goes into solution per volume.

Regarding `CC[C@H]1OC(=O)[C@H](C)[C@@H](O[C@H]2C[C@@](C)(OC)[C@@H](O)[C@H](C)O2)[C@H](C)[C@@H](O[C@@H]2O[C@H](C)C[C@H](N(C)C)[C@H]2O)[C@](C)(O)C[C@@H](C)C(=O)[C@H](C)[C@@H](O)[C@]1(C)O` [Erythromycin], in series [1], the “reduction of MRSA colonization of PTFE in vivo” value was 3.8 log and 3.2 log; the “reduction of MRSA colonization of silk suture in vivo” value is on record as 5.1 log; the “reduction of MRSA colonization of titanium screws in vivo” value is 2.2 log and 2.5 log. Moreover, in series [2], the “reduction of P. aeruginosa colonization of PTFE in vivo” value was 4.4 log and 3.3 log; the “reduction of P. aeruginosa colonization of silk suture in vivo” value is 0.6 log and 0.4 log; the “reduction of P. aeruginosa colonization of titanium screws in vivo” value was 0.5 log and 0.4 log. For the same compound, the “reduction of P. aeruginosa adherent to PTFE in vitro” value in series [3] (coated PTFE) is 5.8 log. In series [3] (coated PTFE, in vitro, p<0.05), the “PA adherence to PTFE (in words)” value was “significantly reduced”. Further, the “reduction of P. aeruginosa adherent to silk suture in vitro” value in series [3] stood at 1.6 log. In addition, the “reduction of P. aeruginosa adherent to titanium screws in vitro” value in series [3] (coated titanium screws) was found to be 5.1 log. Moreover, the “PA adherence to titanium screws (in words)” value in series [3] (coated titanium screws, in vitro, p<0.05) is recorded as “significantly reduced”. Moreover, the solubility in series [4] was 166000 µg/mL and 227000 µM. Also, the “ethanol solubility reported by Sigma” value in series [5] (ethanol, vendor value) is reported as 50 mg/mL. Besides, the “reported solubility in ethanol/alcohol (in words)” value in series [5] was “freely soluble”. In series [6], the “reduction of MRSA adherent to PTFE in vitro” value is 5.7 log and 4.5 log; the “reduction of MRSA adherent to silk suture in vitro” value is given as 5.2 log; the “reduction of MRSA adherent to titanium screws in vitro” value was 5.2 log and 5.3 log.
Consider `C[C@H]1COc2c(N3CCN(C)CC3)c(F)cc3c(=O)c(C(=O)O)cn1c23` [Levofloxacin], for which, in series [1], the “reduction of MRSA colonization of PTFE in vivo” value was 4.5 log and 3.7 log; the “reduction of MRSA colonization of silk suture in vivo” value was 5.1 log and 4.0 log; the “reduction of MRSA colonization of titanium screws in vivo” value is 3.3 log and 3.0 log. Also, in series [2], the “reduction of P. aeruginosa colonization of PTFE in vivo” value is 4.4 log and 3.7 log; the “reduction of P. aeruginosa colonization of silk suture in vivo” value is 3.9 log and 4.3 log; the “reduction of P. aeruginosa colonization of titanium screws in vivo” value is 4.0 log and 3.3 log. In series [3] (coated PTFE), the “reduction of P. aeruginosa adherent to PTFE in vitro” value is 6.2 log. In series [3] (coated PTFE, listed as levofloxacin), the “reduction of P. aeruginosa adherent to PTFE in vitro” value is reported as 6.1 log. For the same compound, in series [3], the “reduction of P. aeruginosa adherent to silk suture in vitro” value is recorded as 6.0 log. For the same compound, the “reduction of P. aeruginosa adherent to titanium screws in vitro” value in series [3] (coated titanium screws) was found to be 6.4 log. For the same compound, in series [6], the “reduction of MRSA adherent to PTFE in vitro” value is 3.9 log, the “reduction of MRSA adherent to silk suture in vitro” value is 5.2 log and the “reduction of MRSA adherent to titanium screws in vitro” value is reported as 5.3 log. Also, in series [6] (listed as levofloxacin), the “reduction of MRSA adherent to PTFE in vitro” value is given as 5.7 log and the “reduction of MRSA adherent to titanium screws in vitro” value is given as 5.2 log.
For the compound `O=C(N[C@H](CO)[C@H](O)c1ccc([N+](=O)[O-])cc1)C(Cl)Cl` [Chloramphenicol], in series [1], the “reduction of MRSA colonization of PTFE in vivo” value is 3.1 log and 2.3 log; the “reduction of MRSA colonization of silk suture in vivo” value is 1.2 log and 1.1 log; the “reduction of MRSA colonization of titanium screws in vivo” value was 2.2 log and 2.3 log. Moreover, in series [6], the “reduction of MRSA adherent to PTFE in vitro” value is listed as 5.7 log, the “reduction of MRSA adherent to silk suture in vitro” value is 5.2 log and the “reduction of MRSA adherent to titanium screws in vitro” value is given as 5.3 log. Besides, the “reduction of MRSA adherent to titanium screws in vitro” value in series [6] (listed as chloramphenicol) was 5.2 log.
Consider `C[C@H]1c2cccc(O)c2C(=O)C2=C(O)[C@]3(O)C(=O)C(C(N)=O)=C(O)[C@@H](N(C)C)[C@@H]3[C@@H](O)[C@@H]21` [Doxycycline, Doxycycline Hyclate], for which, in series [1], the “reduction of MRSA colonization of PTFE in vivo” value is 4.6 log and 4.7 log; the “reduction of MRSA colonization of silk suture in vivo” value is 3.2 log and 2.1 log; the “reduction of MRSA colonization of titanium screws in vivo” value is 3.1 log and 3.0 log. Besides, in series [2], the “reduction of P. aeruginosa colonization of PTFE in vivo” value was 4.4 log and 2.7 log; the “reduction of P. aeruginosa colonization of silk suture in vivo” value was 1.2 log and 1.1 log; the “reduction of P. aeruginosa colonization of titanium screws in vivo” value is 3.7 log and 2.8 log. The “reduction of P. aeruginosa adherent to PTFE in vitro” value in series [3] (coated PTFE) is 5.5 log. Moreover, in series [3] (coated PTFE, listed as doxycycline), the “reduction of P. aeruginosa adherent to PTFE in vitro” value came out at 6.1 log. Moreover, the “reduction of P. aeruginosa adherent to silk suture in vitro” value in series [3] was determined as 4.4 log. Also, the “reduction of P. aeruginosa adherent to silk suture in vitro” value in series [3] (listed as doxycycline) is 6.0 log. The “reduction of P. aeruginosa adherent to titanium screws in vitro” value in series [3] (coated titanium screws) stood at 6.4 log. For the same compound, the solubility in series [4] was 41000 µg/mL and 80000 µM. Moreover, the “reported solubility in ethanol/alcohol (in words)” value in series [5] is given as “sparingly soluble”. In addition, in series [6], the “reduction of MRSA adherent to PTFE in vitro” value was 5.7 log, the “reduction of MRSA adherent to silk suture in vitro” value is listed as 5.2 log and the “reduction of MRSA adherent to titanium screws in vitro” value was found to be 5.3 log. For the same compound, the “reduction of MRSA adherent to titanium screws in vitro” value in series [6] (listed as doxycycline) is on record as 5.2 log.
